Assay results: US8748417B2, “Amino-pyrrolidine-azetidine diamides as monoacylglycerol lipase inhibitors” (Janssen Pharmaceutica, NV, priority 2010, dated 2014)

Assays:
[1] = target: T1, purified wild type MGL (wt-MGLL 6H-11-313) (Homo sapiens, UniProt Q99685); assay: MGL enzyme activity assay (4MU-B cleavage), wild type MGL; format: biochemical; conditions: wild type MGL 5 nM, 4MU-B 10 μM, 37° C.; read-out: MGL wild type inh IC50
T1 construct: purified wild type MGL (wt-MGLL 6H-11-313)
T1 sequence (Q99685 1-303): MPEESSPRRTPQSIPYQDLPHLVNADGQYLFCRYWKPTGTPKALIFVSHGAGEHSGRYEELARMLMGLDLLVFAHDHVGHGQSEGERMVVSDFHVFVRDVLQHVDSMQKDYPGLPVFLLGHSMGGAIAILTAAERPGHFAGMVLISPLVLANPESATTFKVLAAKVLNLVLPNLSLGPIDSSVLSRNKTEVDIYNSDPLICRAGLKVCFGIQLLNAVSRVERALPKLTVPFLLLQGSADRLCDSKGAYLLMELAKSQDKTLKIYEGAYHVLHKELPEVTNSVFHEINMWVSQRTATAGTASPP
Outline: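 Enzyme in 20 mM PIPES pH 7.0, 150 mM NaCl, 0.001% Tween 20 with 4MU-B at 10 μM final and MGL at 5 nM final; compounds 17 to 0.0003 μM final, enzyme added last. Fluorescence (ex 335/em 440 nm) followed at 37° C for 5 min; IC50 from fit of fractional activity versus inhibitor concentration.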

[2] = test system: MGL (rat brain homogenate); assay: 2-AG accumulation assay in rat brain homogenate; format: biochemical; conditions: compound 1 μM, percent of vehicle 2-AG accumulation
Experimental: After a 15-min incubation time at 37° C., CaCl2 (final concentration=10 mM) was added and then incubated for 15 min at 37° C. in a total volume of 5 mL. The reactions were stopped with 6 mL organic solvent extraction solution of 2:1 chloroform/methanol. Accumulated 2-AG in the organic phase was measured by a HPLC/MS method, according to the following equation: percent vehicle=(2-AG accumulation in the presence of compound/2-AG accumulation in vehicle)×100.

Compound | IC50 [1] | Rat Brain 2AG % VehCntrl (%) @1 μM [2]
Cn1nc(-c2ccccc2)c2cc(C(=O)N3CC(N[C@H]4CCN(C(=O)c5nccs5)C4)C3)ccc21 [Cpd 195, (3S)-N-{1-[(1-Methyl-3-phenyl-1H-indazol-5-yl)carbonyl]azetidin-3-yl}-1-(1,3-thiazol-2-ylcarbonyl)pyrrolidin-3-amine] | 0.0224 µM | 472%
O=C(c1ccc2c(c1)c(F)cn2-c1ccc(F)cc1)N1CC(N[C@H]2CCN(C(=O)c3ccccc3)C2)C1 [Cpd 142, (3S)-N-(1-{[3-Fluoro-1-(4-fluorophenyl)-1H-indol-5-yl]carbonyl}azetidin-3-yl)-1-(phenylcarbonyl)pyrrolidin-3-amine] | 0.0565 µM | 247%
O=C(c1ccc2c(-c3cccc(C(F)(F)F)c3)c[nH]c2c1)N1CC(N[C@H]2CCN(C(=O)c3cscn3)C2)C1 [Cpd 106, (3S)-1-(1,3-Thiazol-4-ylcarbonyl)-N-[1-({3-[3-(trifluoromethyl)phenyl]-1H-indol-6-yl}carbonyl)azetidin-3-yl]pyrrolidin-3-amine] | < 0.005 µM | 389%
O=C(c1cc2ccc(-c3cccc(C(F)(F)F)c3)cc2s1)N1CC(N[C@H]2CCN(C(=O)c3nccs3)C2)C1 [Cpd 99, (3S)-1-(1,3-Thiazol-2-ylcarbonyl)-N-[1-({6-[3-(trifluoromethyl)phenyl]-1-benzothiophen-2-yl}carbonyl)azetidin-3-yl]pyrrolidin-3-amine] | < 0.005 µM | 644%
O=C(c1ccc2c(ccn2-c2ccc(F)cc2)c1)N1CC(N[C@H]2CCN(C(=O)c3cscn3)C2)C1 [Cpd 160, (3S)-N-(1-{[1-(4-Fluorophenyl)-1H-indol-5-yl]carbonyl}azetidin-3-yl)-1-(1,3-thiazol-4-ylcarbonyl)pyrrolidin-3-amine] | 0.0124 µM | 338%
O=C(c1nccs1)N1CC[C@H](NC2CN(C(=O)c3ccc4c(ccn4-c4ccc(F)cc4)c3F)C2)C1 [Cpd 198, (3S)-N-(1-{[4-Fluoro-1-(4-fluorophenyl)-1H-indol-5-yl]carbonyl}azetidin-3-yl)-1-(1,3-thiazol-2-ylcarbonyl)pyrrolidin-3-amine] | < 0.005 µM | 937%
O=C(c1ccc2c(ccn2-c2ccc(C(F)(F)F)cc2)c1)N1CC(N[C@H]2CCN(C(=O)c3nccs3)C2)C1 [Cpd 118, (3S)-1-(1,3-Thiazol-2-ylcarbonyl)-N-[1-({1-[4-(trifluoromethyl)phenyl]-1H-indol-5-yl}carbonyl)azetidin-3-yl]pyrrolidin-3-amine] | < 0.005 µM | 626%

More lines, main results first:

IC50 [1] | Compound | Rat Brain 2AG % VehCntrl (%) @1 μM [2]
0.012 µM | O=C(c1ccccc1)N1CC[C@H](NC2CN(C(=O)c3sc4cc(-c5ccc(C(F)(F)F)cc5)ccc4c3F)C2)C1 [Cpd 179, (3S)-N-[1-({3-Fluoro-6-[4-(trifluoromethyl)phenyl]-1-benzothiophen-2-yl}carbonyl)azetidin-3-yl]-1-(phenylcarbonyl)pyrrolidin-3-amine] | 259%
0.005 µM | O=C(c1cscn1)N1CC[C@H](NC2CN(C(=O)c3cc4ccc(-c5ccc(C(F)(F)F)cc5)cc4s3)C2)C1 [Cpd 128, (3S)-1-(1,3-Thiazol-4-ylcarbonyl)-N-[1-({6-[4-(trifluoromethyl)phenyl]-1-benzothiophen-2-yl}carbonyl)azetidin-3-yl]pyrrolidin-3-amine] | 491%
0.0222 µM | O=C(c1ccc2c(-c3ccc(C(F)(F)F)cc3)c[nH]c2c1)N1CC(N[C@H]2CCN(C(=O)c3nccs3)C2)C1 [Cpd 104, (3S)-1-(1,3-Thiazol-2-ylcarbonyl)-N-[1-({3-[4-(trifluoromethyl)phenyl]-1H-indol-6-yl}carbonyl)azetidin-3-yl]pyrrolidin-3-amine] | 195%
